# Assay results published in patent publication US20090143440A1, “Pyrazoles Useful in the Treatment of Inflammation” (BIOLIPOX AB, priority 2005, published 2009).
# pIC50: −log10 of the molar value.
# Molecular target: T1, purified human 15-lipoxygenase (Homo sapiens, UniProt P16050)
# T1 sequence (P16050 1-662): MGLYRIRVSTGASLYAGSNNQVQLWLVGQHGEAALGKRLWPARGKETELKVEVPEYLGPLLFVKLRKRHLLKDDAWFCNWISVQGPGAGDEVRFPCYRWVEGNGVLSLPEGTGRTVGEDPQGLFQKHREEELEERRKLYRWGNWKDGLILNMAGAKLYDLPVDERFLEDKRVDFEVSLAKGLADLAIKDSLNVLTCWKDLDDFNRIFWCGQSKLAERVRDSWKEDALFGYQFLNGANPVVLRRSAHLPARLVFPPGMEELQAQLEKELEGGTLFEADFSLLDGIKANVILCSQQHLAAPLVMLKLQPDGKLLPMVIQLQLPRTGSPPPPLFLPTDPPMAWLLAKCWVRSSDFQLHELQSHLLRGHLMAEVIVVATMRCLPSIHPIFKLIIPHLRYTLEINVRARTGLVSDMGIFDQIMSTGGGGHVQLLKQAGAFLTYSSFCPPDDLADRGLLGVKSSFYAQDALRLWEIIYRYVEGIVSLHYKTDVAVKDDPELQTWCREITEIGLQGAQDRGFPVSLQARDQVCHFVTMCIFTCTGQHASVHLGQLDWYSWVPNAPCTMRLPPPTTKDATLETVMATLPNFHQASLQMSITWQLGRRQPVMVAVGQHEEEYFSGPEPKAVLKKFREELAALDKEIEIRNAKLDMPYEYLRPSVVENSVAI
# Experiment: 15-lipoxygenase inhibition assay (arachidonic acid oxidation, HPLC readout)
# Type: biochemical
# Conditions: arachidonic acid substrate, room temperature, PBS pH 7.4
# Procedure: The assay employed takes advantage of the ability of lipoxygenases to oxidize polyunsaturated fatty acids, containing a 1,4-cis-pentadiene configuration, to their corresponding hydroperoxy or hydroxyl derivatives. In this particular assay, the lipoxygenase was a purified human 15-lipoxygenase and the fatty acid was arachidonic acid. The assay is performed at room temperature (20-22° C.) and the following are added to each well in a 96-well microtiter plate:
# a) 35 μL phosphate buffered saline (PBS) (pH 7.4); b) inhibitor (i.e. compound) or vehicle (0.5 μl DMSO); c) 10 μL of a 10× concentrated solution of 15-lipoxygenase in PBS. […] The plate is then incubated for 10 minutes at room temperature; e) the enzymatic reaction is terminated by the addition of 100 μl methanol; and f) the amount of 15-hydroperoxy-eicosatetraenoic acid or 15-hydroxy-eicosatetraenoic acid is measured by reverse phase HPLC.
row,Compound,pIC50
1,"COc1ccc(NC(=O)c2cc(Cl)[nH]n2)nc1 [Example 29, 5-Chloro-N-(5-methoxypyridin-2-yl)pyrazole-3-carboxamide]",6.91
2,"Cc1nc(NC(=O)c2cc(Cl)[nH]n2)ccc1Br [Example 6, N-(5-bromo-6-methylpyridin-2-yl)-5-chloropyrazole-3-carboxamide]",6.49
3,"O=C(Nc1ccc(F)cn1)c1n[nH]c(C(F)(F)F)c1Cl [Example 11, 4-Chloro-N-(5-fluoropyridin-2-yl)-5-(trifluoromethyl)pyrazole-3-carboxamide]",6.51
4,"O=C(Nc1ccc(F)cn1)c1cc(C(F)F)[nH]n1 [Example 13, 5-(Difluoromethyl)-N-(5-fluoropyridin-2-yl)pyrazole-3-carboxamide]",6.41

# More lines, in order of rising pIC50, values ahead:
row,pIC50,Compound
1,6.46,Cc1ccnc(NC(=O)c2cc[nH]n2)c1 [Example 44]
2,6.52,"O=C(Nc1ccc(C(F)(F)F)cn1)c1cc(Cl)[nH]n1 [Example 5, 5-Chloro-N-(5-(trifluoromethyl)pyridin-2-yl)pyrazole-3-carboxamide]"
3,6.61,"O=C(Nc1ccc([N+](=O)[O-])cn1)c1cc(Cl)[nH]n1 [Example 14, 5-Chloro-N-(5-nitropyridin-2-yl)pyrazole-3-carboxamide]"
